Measured values taken from patent publication US20210023113A1, “CONJUGATE OF CYTOTOXIC DRUG AND PRODRUG FORM OF SAID CONJUGATE” (priority 2018, published 2021).

Legend:
serum albumin = molecular target: T1, serum albumin (Homo sapiens, UniProt P02768); assay: Plasma-binding kinetics of R5 and S5; type: in vitro ADME; details: 37° C.
T1 construct: adding 10 μL of R5 (10 mM in DMSO) to 990 μL of human plasma and incubating at 37° C; from tissue; host or cells: human plasma
Method: Plasma-Binding Kinetics of R5 and S5 • Quenching solution (Q) was prepared by adding 50 μL of 1 M aqueous HCl to 1.5 mL of acetonitrile. • Sample solution R-Alb was prepared by adding 10 μL of R5 (10 mM in DMSO) to 990 μL of human plasma and incubating at 37° C. • Sample solution S-Alb was prepared by adding 10 μL of S5 (10 mM in DMSO) to 990 μL of human plasma and incubating at 37° C. • 45 μL aliquots of each sample solution were added to 155 μL of the quenching solution at the following time-points: 0 min, 1 min, 2 min, 3 min, 4 min, 5 min, 6 min, 7 min. • Quenched aliquots were centrifuged at 15000 g for 5 min and the supernatant was analyzed by LCMS (Method 3) with Selected ion recording set to 924 Da (corresponding to [R5+2H]^2+/2 and [S5+2H]^2+/2). Peak areas of the aliquots quenched at 0 min were considered as reference peak areas. • The % remaining free drug at each time point was calculated as (sample peak area)/(reference peak area)×100%.

[1] = Stability of R5 and S5 in aqueous buffer (PBS); type: physicochemical; details: phosphate buffered saline pH 6.0, any time point
Method: Measurement of the Stability of R5 and S5 in Aqueous Buffer at pH 7.4 • Sample solution R5-PBS was prepared by adding 20 μL of R5 (10 mM in DMSO) to 180 μL of phosphate buffered saline (pH 7.4). • Sample solution S5-PBS was prepared by adding 20 μL of S5 (10 mM in DMSO) to 180 μL of phosphate buffered saline (pH 7.4). • Samples were incubated at 25° C. and analyzed by LCMS (Method 3) with Selected ion recording set to 924 Da (corresponding to [R5+2H]^2+/2 and [S5+2H]^2+/2) and to 933 Da (the main impurity being formed corresponding to hydrolyzed products [R5+H2O+2H]^2+/2 and [S5+H2O+2H]^2+/2). Samples were injected at the following time points: 0 min, 99 min, 195 min, 291 min, 387 min, 543 min, 699 min, 855 min, 980 min. Peak areas of the samples injected at 0 min were considered as reference peak areas. • % Peak Area was calculated as (924 Da peak area)/((924 Da peak area)+(933 Da peak area))×100%.
The same experiment was carried out in phosphate buffered saline at pH 6.0.

[2] = molecular target: T2, β-glucuronidase from Escherichia coli (Escherichia coli, UniProt P05804); assay: Kinetics of β-glucuronidase-induced release of MMAE in human plasma; type: biochemical; details: after 7 minutes of incubation with β-glucuronidase, 37° C.
Method: Measurement of the Kinetics of β-glucuronidase-Induced Release of MMAE • Sample solution of R isomer was prepared by adding 10 μL of R5 (10 mM in DMSO) to 990 μL of human plasma and incubating at 37° C. for 20 min. • Sample solution of S isomer was prepared by adding 10 μL of S5 (10 mM in DMSO) to 990 μL of human plasma and incubating at 37° C. for 20 min. • Quenching solution (Q) was prepared by adding 50 μL of 1 M aqueous HCl to 1.5 mL of acetonitrile. • β-glucuronidase solution (Glu) was prepared by adding 20 μL of aqueous glycerol solution of β-glucuronidase from Escherichia coli (6.5 mg/mL) to 180 μL of H2O. • Reference solution (Ref) was prepared by adding 10 μL of MMAE (10 mM in DMSO) to 990 μL of human plasma and incubating at 37° C. for 20 min.
To 1 mL of each isomer and reference solution was added 40.9 uL of Glu. The resulting mixtures were incubated at 37° C. 45 μL aliquots of each solution were quenched with 155 μL of Q at the following time points: 1 min, 2 min, 3 min, 4 min, 5 min, 6 min and 7 min. Quenched aliquots were centrifuged at 15000 g for 5 min and the supernatant was analyzed by LCMS (Method 3) with Selected ion recording set to 719 Da (corresponding to [MMAE+H]^+). The amount of released MMAE at each time point was calculated as (sample peak area)/(reference peak area)×100% (FIG. 2).

[3] = molecular target: T2, β-glucuronidase from Escherichia coli; assay: Kinetics of β-glucuronidase-induced release of a cytotoxic drug (general procedure, plasma/phosphate buffer); type: biochemical; details: after 40 minutes of incubation with β-glucuronidase, 50/50 human plasma and potassium phosphate buffer pH 7.0, 25° C.
Method: General Procedure for the Measurement of the Kinetics of β-glucuronidase-Induced Release of a Cytotoxic Drug • Sample solution of R isomers was prepared by adding 5 μL of compounds R6, R7 or R8 (10 mM in DMSO) to 500 μL of a 50/50 mixture of human plasma and potassium phosphate buffer (0.1M, pH 7.0) and incubating at 37° C. for 20 min. • Sample solution of S isomers was prepared by adding 5 μL of compounds S6, S7 or S8 (10 mM in DMSO) to 500 μL of a 50/50 mixture of human plasma and potassium phosphate buffer (0.1M, pH 7.0) and incubating at 37° C. for 20 min. • Quenching solution (Q) was prepared by adding 50 μL of 1 M aqueous HCl to 1.5 mL of acetonitrile. • β-glucuronidase solution (Glu) was prepared by adding 20 μL of aqueous glycerol solution of β-glucuronidase from Escherichia coli (6.5 mg/mL) to 180 μL of H2O. • Reference solution (Ref) was prepared by adding 5 μL of a corresponding free cytotoxic drug (10 mM in DMSO) to 500 μL of a 50/50 mixture of human plasma and potassium phosphate buffer (0.1M, pH 7.0) and incubating at 37° C. for 20 min.
To each sample and reference solution was added 10 uL of Glu. The resulting mixtures were incubated at 25° C. 45 μL aliquots of each solution were quenched with 155 μL of Q at the precise time points indicated on the graphs (FIGS. 3-5). Quenched aliquots were centrifuged at 15000 g for 5 min and the supernatant was analyzed by LCMS (Method 3) with Selected ion recording set to [M+H]^+ where M corresponds to molecular mass of the free cytotoxic agent.
The amount of released cytotoxic agent at each time point was calculated as (sample peak area)/(reference peak area)×100%.

T2 sequence (P05804 whole entry): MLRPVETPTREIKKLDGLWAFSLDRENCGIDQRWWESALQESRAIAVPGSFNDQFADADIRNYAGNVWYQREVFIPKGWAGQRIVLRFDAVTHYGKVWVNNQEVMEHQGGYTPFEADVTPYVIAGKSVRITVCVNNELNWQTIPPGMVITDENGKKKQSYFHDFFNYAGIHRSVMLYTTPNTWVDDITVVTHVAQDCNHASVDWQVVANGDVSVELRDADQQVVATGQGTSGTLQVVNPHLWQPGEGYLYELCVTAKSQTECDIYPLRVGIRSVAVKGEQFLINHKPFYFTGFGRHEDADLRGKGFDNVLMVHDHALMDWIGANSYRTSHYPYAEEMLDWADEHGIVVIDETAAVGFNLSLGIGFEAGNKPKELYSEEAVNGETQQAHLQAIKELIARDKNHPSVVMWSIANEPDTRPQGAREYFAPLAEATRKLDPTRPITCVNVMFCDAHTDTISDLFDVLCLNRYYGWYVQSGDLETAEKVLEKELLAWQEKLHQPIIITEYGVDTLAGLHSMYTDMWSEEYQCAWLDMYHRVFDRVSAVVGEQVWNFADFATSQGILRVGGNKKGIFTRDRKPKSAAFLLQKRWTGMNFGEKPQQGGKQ
T1 sequence (P02768 25-609): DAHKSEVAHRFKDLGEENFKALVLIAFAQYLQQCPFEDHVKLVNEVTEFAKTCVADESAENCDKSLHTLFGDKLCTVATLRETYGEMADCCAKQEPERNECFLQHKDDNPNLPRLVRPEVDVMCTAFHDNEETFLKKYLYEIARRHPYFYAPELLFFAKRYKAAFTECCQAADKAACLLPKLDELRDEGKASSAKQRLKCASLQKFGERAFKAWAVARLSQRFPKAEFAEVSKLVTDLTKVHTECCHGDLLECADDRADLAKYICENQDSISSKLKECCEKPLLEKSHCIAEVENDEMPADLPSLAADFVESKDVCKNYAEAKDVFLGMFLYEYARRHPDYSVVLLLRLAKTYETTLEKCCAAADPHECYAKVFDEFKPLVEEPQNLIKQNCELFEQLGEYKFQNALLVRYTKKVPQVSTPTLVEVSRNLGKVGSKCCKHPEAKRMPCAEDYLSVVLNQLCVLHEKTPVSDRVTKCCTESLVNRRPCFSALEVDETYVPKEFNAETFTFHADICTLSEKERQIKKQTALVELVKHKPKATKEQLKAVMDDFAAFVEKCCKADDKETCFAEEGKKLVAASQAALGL

CC[C@H](C)[C@@H]([C@@H](CC(=O)N1CCC[C@H]1[C@H](OC)[C@@H](C)C(=O)N[C@H](C)[C@@H](O)c1ccccc1)OC)N(C)C(=O)[C@@H](NC(=O)[C@H](C(C)C)N(C)C(=O)O[C@@H](Cc1cn(CCOCCOCCOCCOCCOCCOCCOCCOCCOCCOCCNC(=O)CCCCCN2C(=O)C=CC2=O)nn1)c1ccc(O[C@@H]2O[C@H](C(=O)O)[C@@H](O)[C@H](O)[C@H]2O)c([N+](=O)[O-])c1)C(C)C [S5]
compound bound to serum albumin (serum albumin; after 2 minutes of incubation): about 90% | conversion (binding to serum albumin) (serum albumin; after 4 minutes): total conversion | degradation of compound [1]: No degradation | MMAE released from plasma-bound compound [2]: 12%

CC[C@H](C)[C@@H]([C@@H](CC(=O)N1CCC[C@H]1[C@H](OC)[C@@H](C)C(=O)N[C@@H](Cc1ccccc1)C(=O)O)OC)N(C)C(=O)[C@@H](NC(=O)[C@H](C(C)C)N(C)C(=O)O[C@@H](Cc1cn(CCOCCOCCOCCOCCOCCOCCOCCOCCOCCOCCNC(=O)CCCCCN2C(=O)C=CC2=O)nn1)c1ccc(O[C@@H]2O[C@H](C(=O)O)[C@@H](O)[C@H](O)[C@H]2O)c([N+](=O)[O-])c1)C(C)C [S6]
MMAF released from plasma-bound compound [3]: 57%

CCc1c2c(nc3ccc(OCc4ccc(NC(=O)O[C@@H](Cc5cn(CCOCCOCCOCCOCCOCCOCCOCCOCCOCCOCCNC(=O)CCCCCN6C(=O)C=CC6=O)nn5)c5ccc(O[C@H]6O[C@@H](C(=O)O)[C@H](O)[C@@H](O)[C@@H]6O)c([N+](=O)[O-])c5)cc4)cc13)-c1cc3c(c(=O)n1C2)COC(=O)[C@]3(O)CC [S7]
SN-38 released from plasma-bound compound [3]: 18%

COc1cccc2c1C(=O)c1c(O)c3c(c(O)c1C2=O)C[C@@](O)(C(=O)CO)C[C@@H]3O[C@H]1C[C@H](NC(=O)O[C@@H](Cc2cn(CCOCCOCCOCCOCCOCCOCCOCCOCCOCCOCCNC(=O)CCCCCN3C(=O)C=CC3=O)nn2)c2ccc(O[C@H]3O[C@@H](C(=O)O)[C@H](O)[C@@H](O)[C@@H]3O)c([N+](=O)[O-])c2)[C@H](O)[C@H](C)O1 [S8]
Doxorubicin released from plasma-bound compound [3]: 80%
